Assay results from ChEMBL document CHEMBL1135887, “Substituted pentacyclic carbazolones as novel muscarinic allosteric agents: synthesis and structure-affinity and cooperativity relationships” (J Med Chem, 2002).

Key:
[1] = target: T1, Muscarinic acetylcholine receptor M4 (Homo sapiens) (UniProt P08173); test: Logarithm of affinity (log 1/M) at the (N-methyl Scopolamine) NMS-liganded muscarinic acetylcholine receptor M4 by using semiquantitative equilibrium and off-rate assay
T1 sequence (whole entry): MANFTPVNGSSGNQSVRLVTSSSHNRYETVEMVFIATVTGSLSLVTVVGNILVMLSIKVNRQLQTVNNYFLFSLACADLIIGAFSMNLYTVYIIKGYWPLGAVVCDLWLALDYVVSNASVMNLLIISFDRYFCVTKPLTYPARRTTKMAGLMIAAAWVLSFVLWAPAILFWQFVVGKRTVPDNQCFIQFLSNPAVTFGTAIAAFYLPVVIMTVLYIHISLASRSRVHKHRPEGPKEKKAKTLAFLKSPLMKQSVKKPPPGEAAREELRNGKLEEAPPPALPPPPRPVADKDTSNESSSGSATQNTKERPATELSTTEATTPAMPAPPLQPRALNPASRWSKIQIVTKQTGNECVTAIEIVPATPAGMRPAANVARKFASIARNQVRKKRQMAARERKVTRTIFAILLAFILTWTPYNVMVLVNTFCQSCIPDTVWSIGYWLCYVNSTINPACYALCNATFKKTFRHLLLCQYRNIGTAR

[2] = target: T2, Muscarinic acetylcholine receptor M2 (Homo sapiens) (UniProt P08172); test: Subtype selectivity and the cooperativity with N-methyl Scopolamine (NMS) at Muscarinic acetylcholine receptor M2; Activity range is 0.81-1.19
T2 sequence (whole entry): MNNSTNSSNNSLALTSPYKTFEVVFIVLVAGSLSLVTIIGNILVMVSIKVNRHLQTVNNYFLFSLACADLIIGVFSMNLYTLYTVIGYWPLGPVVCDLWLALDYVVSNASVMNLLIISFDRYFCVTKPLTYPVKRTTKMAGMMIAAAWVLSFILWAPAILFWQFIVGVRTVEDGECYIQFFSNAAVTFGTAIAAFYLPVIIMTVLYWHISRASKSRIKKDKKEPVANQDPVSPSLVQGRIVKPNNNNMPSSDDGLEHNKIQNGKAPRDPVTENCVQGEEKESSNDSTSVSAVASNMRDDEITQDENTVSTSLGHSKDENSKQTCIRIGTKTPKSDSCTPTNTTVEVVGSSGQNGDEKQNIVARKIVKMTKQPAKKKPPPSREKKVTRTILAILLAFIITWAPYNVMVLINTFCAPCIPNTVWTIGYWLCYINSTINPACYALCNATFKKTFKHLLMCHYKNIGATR

[3] = target: T1, Muscarinic acetylcholine receptor M4 (Homo sapiens); test: Subtype selectivity and the cooperativity with N-methyl Scopolamine (NMS) at Muscarinic acetylcholine receptor M4; Activity range is 0.81-1.19
[4] = target: T2, Muscarinic acetylcholine receptor M2 (Homo sapiens); test: Logarithm of affinity (log 1/M) at the (N-methyl Scopolamine) NMS-liganded muscarinic acetylcholine receptor M2 by using semiquantitative equilibrium and off-rate assay
[5] = target: T3, Muscarinic acetylcholine receptor M1 (Homo sapiens) (UniProt P11229); test: Subtype selectivity and the cooperativity with N-methyl Scopolamine (NMS) at Muscarinic acetylcholine receptor M1; Activity range is 0.2-0.8
T3 sequence (whole entry): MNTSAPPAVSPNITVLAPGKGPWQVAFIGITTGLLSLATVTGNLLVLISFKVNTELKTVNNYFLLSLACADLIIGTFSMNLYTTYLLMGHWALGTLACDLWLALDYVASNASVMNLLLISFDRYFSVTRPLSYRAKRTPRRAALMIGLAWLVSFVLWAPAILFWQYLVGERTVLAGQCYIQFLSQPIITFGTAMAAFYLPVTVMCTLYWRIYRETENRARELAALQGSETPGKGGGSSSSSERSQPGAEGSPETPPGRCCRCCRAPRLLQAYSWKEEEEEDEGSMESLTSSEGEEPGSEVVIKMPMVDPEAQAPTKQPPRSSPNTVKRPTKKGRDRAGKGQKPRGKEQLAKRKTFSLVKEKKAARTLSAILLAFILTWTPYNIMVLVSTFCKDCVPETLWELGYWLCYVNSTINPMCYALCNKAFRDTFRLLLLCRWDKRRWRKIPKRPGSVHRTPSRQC

[6] = target: T3, Muscarinic acetylcholine receptor M1 (Homo sapiens); test: Logarithm of affinity (log 1/M) at the free muscarinic acetylcholine receptor M1 by using semiquantitative equilibrium and off-rate assay
[7] = target: T1, Muscarinic acetylcholine receptor M4 (Homo sapiens); test: Logarithm of affinity (log 1/M) at the muscarinic acetylcholine receptor M4 by using semiquantitative equilibrium and off-rate assay
[8] = target: Muscarinic acetylcholine receptor M3 (Homo sapiens) (UniProt P20309); test: Logarithm of affinity (log 1/M) at the muscarinic acetylcholine receptor M3 by using semiquantitative equilibrium and off-rate assay
Chain of Muscarinic acetylcholine receptor M3 (Homo sapiens) (P20309 whole entry, looked up): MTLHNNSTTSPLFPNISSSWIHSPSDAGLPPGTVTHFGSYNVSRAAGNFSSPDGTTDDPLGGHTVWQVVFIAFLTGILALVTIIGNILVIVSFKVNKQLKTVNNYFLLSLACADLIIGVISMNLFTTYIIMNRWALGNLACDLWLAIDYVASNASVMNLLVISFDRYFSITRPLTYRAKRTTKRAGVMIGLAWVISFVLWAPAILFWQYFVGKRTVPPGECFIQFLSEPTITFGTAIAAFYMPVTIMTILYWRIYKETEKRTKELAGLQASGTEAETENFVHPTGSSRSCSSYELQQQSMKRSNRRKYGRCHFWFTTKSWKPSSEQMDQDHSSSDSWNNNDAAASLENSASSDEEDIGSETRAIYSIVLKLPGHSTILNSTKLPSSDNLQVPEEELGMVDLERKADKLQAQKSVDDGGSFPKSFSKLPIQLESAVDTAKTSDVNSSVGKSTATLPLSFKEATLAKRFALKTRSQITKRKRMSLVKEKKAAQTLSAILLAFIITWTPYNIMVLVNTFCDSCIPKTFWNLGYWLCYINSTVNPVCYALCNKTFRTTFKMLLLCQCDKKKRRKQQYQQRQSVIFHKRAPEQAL

[9] = target: T3, Muscarinic acetylcholine receptor M1 (Homo sapiens); test: Logarithm of affinity (log 1/M) at the (N-methyl Scopolamine) NMS-liganded muscarinic acetylcholine receptor M1 by using semiquantitative equilibrium and off-rate assay
[10] = target: Muscarinic acetylcholine receptor M3 (Homo sapiens) (UniProt P20309); test: Logarithm of affinity (log 1/M) at the (N-methyl Scopolamine) NMS-liganded muscarinic acetylcholine receptor M3 by using semiquantitative equilibrium and off-rate assay
[11] = target: T2, Muscarinic acetylcholine receptor M2 (Homo sapiens); test: Logarithm of affinity (log 1/M) at the muscarinic acetylcholine receptor M2 by using semiquantitative equilibrium and off-rate assay
[12] = target: Muscarinic acetylcholine receptor M3 (Homo sapiens) (UniProt P20309); test: Subtype selectivity and the cooperativity with N-methyl Scopolamine (NMS) at muscarinic acetylcholine receptor M3; Activity range is 0.2-0.8
[13] = target: T1, Muscarinic acetylcholine receptor M4 (Homo sapiens); test: Subtype selectivity and the cooperativity with N-methyl Scopolamine (NMS) at Muscarinic acetylcholine receptor M4; Activity range is 081-1.19
[14] = target: T2, Muscarinic acetylcholine receptor M2 (Homo sapiens); test: Subtype selectivity and the cooperativity with N-methyl Scopolamine (NMS) at Muscarinic acetylcholine receptor M2; Activity range is 1.2-3
[15] = target: Muscarinic acetylcholine receptor M3 (Homo sapiens) (UniProt P20309); test: Subtype selectivity and the cooperativity with N-methyl Scopolamine (NMS) at Muscarinic acetylcholine receptor M3; […]
[16] = target: T1, Muscarinic acetylcholine receptor M4 (Homo sapiens); test: Subtype selectivity and cooperativity with N-methyl Scopolamine (NMS) at Muscarinic acetylcholine receptor M4; Activity range is 1.2-3
[17] = target: T3, Muscarinic acetylcholine receptor M1 (Homo sapiens); test: Subtype selectivity and the cooperativity with N-methyl Scopolamine (NMS) at Muscarinic acetylcholine receptor M1; Activity range is 1.81-1.19
[18] = target: T2, Muscarinic acetylcholine receptor M2 (Homo sapiens); test: Subtype selectivity and the cooperativity with N-methyl Scopolamine (NMS) at Muscarinic acetylcholine receptor M2; activity range is 1.2-3.
[19] = target: T1, Muscarinic acetylcholine receptor M4 (Homo sapiens); test: Subtype selectivity and the cooperativity with N-methyl Scopolamine (NMS) at Muscarinic acetylcholine receptor M4; Activity range is 0.2-0.8
[20] = target: T2, Muscarinic acetylcholine receptor M2 (Homo sapiens); test: Subtype selectivity and the cooperativity with N-methyl Scopolamine (NMS) at Muscarinic acetylcholine receptor M2; Activity range is 0.2-0.8
[21] = target: T3, Muscarinic acetylcholine receptor M1 (Homo sapiens); test: Subtype selectivity and the cooperativity with N-methyl Scopolamine (NMS) at Muscarinic acetylcholine receptor M1; Activity range is 0.81-1.19
[22] = target: T1, Muscarinic acetylcholine receptor M4 (Homo sapiens); test: Subtype selectivity and the cooperativity with N-methyl Scopolamine (NMS) at Muscarinic acetylcholine receptor M4
[23] = target: Muscarinic acetylcholine receptor M3 (Homo sapiens) (UniProt P20309); test: Subtype selectivity and the cooperativity with N-methyl Scopolamine (NMS) at Muscarinic acetylcholine receptor M3
[24] = target: T2, Muscarinic acetylcholine receptor M2 (Homo sapiens); test: Subtype selectivity and the cooperativity with N-methyl Scopolamine (NMS) at Muscarinic acetylcholine receptor M2
[25] = target: T3, Muscarinic acetylcholine receptor M1 (Homo sapiens); test: Subtype selectivity and the cooperativity with N-methyl Scopolamine (NMS) at Muscarinic acetylcholine receptor M1
[26] = target: T3, Muscarinic acetylcholine receptor M1 (Homo sapiens); test: Subtype selectivity and the cooperativity with N-methyl Scopolamine (NMS) at Muscarinic acetylcholine receptor M1; activity value ranges from 0.81-1.19.
[27] = target: Muscarinic acetylcholine receptor M3 (Homo sapiens) (UniProt P20309); test: Subtype selectivity and the cooperativity with N-methyl Scopolamine (NMS) at Muscarinic acetylcholine receptor M3; activity range is 0.81-1.19.
[28] = target: T3, Muscarinic acetylcholine receptor M1 (Homo sapiens); test: Subtype selectivity and the cooperativity with N-methyl Scopolamine (NMS) at Muscarinic acetylcholine receptor M1 Activity range is 0.2-0.8

SMILES	Log 1/M [1]	Log 1/M [4]	Cooperativity [5]	Log 1/M [6]	Log 1/M [7]	Log 1/M [8]	Log 1/M [9]	Log 1/M [10]	Log 1/M [11]	Cooperativity [12]	further results
COc1ccc2c(c1)c1c3c(cc4c1n2C(=O)CC4)CCNC3	5.74	6.05	0.8	6.1	5.71	5.21	5.91	4.76	5.87	0.8	Cooperativity [13]: 1.19; Cooperativity [14]: 3
COC(=O)c1ccc2c3c4c(cc5c3n(c2c1)C(=O)CC5)CNCC4	6.01	6.35	0.8	6.14	5.04	5.43	5.72	4.83	6.39	0.8	Cooperativity [19]: 0.8; Cooperativity [20]: 0.8
COc1ccc2c3c4c(cc5c3n(c2c1)C(=O)CC5)CCNC4	6	6.18	–	6.13	5.68	5.14	6.17	4.86	5.92	0.8	Cooperativity [21]: 1.19; Cooperativity [16]: 3; Cooperativity [14]: 3
COc1cc2c3c4c(cc5c3n(c2cc1OC)C(=O)CC5(C)C)CCNC4	6.37	6.7	0.8	6.88	6.67	6.03	6.29	5.47	7.08	0.8	Cooperativity [19]: 0.8; Cooperativity [20]: 0.8
COc1cc2c(c(OC)c1OC)c1c3c(cc4c1n2C(=O)CC4)CNCC3	6.21	6.67	0.8	6.74	5.97	5.63	6.52	5.33	6.69	0.8	Cooperativity [2]: 1.19; Cooperativity [16]: 3
CC1(C)CC(=O)n2c3cccc(O)c3c3c4c(cc1c32)CNCC4	5.97	5.88	–	5.8	5.75	5.15	5.84	4.84	5.56	0.8	Cooperativity [21]: 1.19; Cooperativity [16]: 3; Cooperativity [14]: 3
O=C(c1ccc2c(c1)c1c3c(cc4c1n2C(=O)CC4)CNCC3)N1CCOCC1	4.54	5.21	–	5.1	5.14	4.45	4.7	3.57	4.71	–	Cooperativity [19]: 0.8; Cooperativity [23]: < 0.2; Cooperativity [24]: > 3; Cooperativity [25]: < 0.2
COc1cc2c3c4c(c(COC(C)=O)c5c3n(c2cc1OC)C(=O)CC5)CNCC4	6.55	7.21	–	6.09	5.91	5.69	6.16	5.85	6.63	–	Cooperativity [22]: > 3; Cooperativity [26]: 1.19; Cooperativity [24]: > 3; Cooperativity [27]: 1.19
COc1cccc2c1c1c3c(cc4c1n2C(=O)CC4)CNCC3	6.26	6.7	–	6.5	6.25	5.58	5.95	5.52	6.43	–	Cooperativity [15]: 1.19; Cooperativity [3]: 1.19; Cooperativity [28]: 0.8; Cooperativity [14]: 3
COC(=O)c1ccc2c(c1)c1c3c(cc4c1n2C(=O)CC4)CCNC3	5.91	6.03	0.8	6.19	5.84	5.55	5.85	4.88	6.14	0.8	Cooperativity [3]: 1.19; Cooperativity [20]: 0.8

Now from value to compound, other results behind:

Log 1/M [1]	Log 1/M [4]	Cooperativity [5]	Log 1/M [6]	Log 1/M [7]	Log 1/M [8]	Log 1/M [9]	Log 1/M [10]	Log 1/M [11]	Cooperativity [12]	SMILES	further results
5.65	5.64	0.8	6.59	5.52	5.6	6.13	5.23	5.6	0.8	O=C1CCc2cc3c(c4c5ccc(O)cc5n1c24)CNCC3	Cooperativity [2]: 1.19; Cooperativity [3]: 1.19
5.9	5.81	–	6.04	5.56	5.13	6.07	5.12	5.66	–	O=C1CCc2cc3c(c4c5cc(O)ccc5n1c24)CNCC3	Cooperativity [15]: 1.19; Cooperativity [16]: 3; Cooperativity [17]: 1.19; Cooperativity [18]: 3
6.05	6.25	–	5.79	5.65	4.89	6.07	5.47	5.61	–	O=C1CCc2cc3c(c4c5cc(O)ccc5n1c24)CCNC3	Cooperativity [22]: > 3; Cooperativity [23]: > 3; Cooperativity [24]: > 3; Cooperativity [25]: > 3
6.14	6.54	–	5.66	5.61	5.16	5.58	5.23	5.93	–	O=C1CCc2cc3c(c4c5cc(Cl)ccc5n1c24)CCNC3	Cooperativity [15]: 1.19; Cooperativity [22]: > 3; Cooperativity [21]: 1.19; Cooperativity [24]: > 3
5.36	5.58	0.8	5.87	5.85	5.19	5.46	4.68	5.79	0.8	N#Cc1ccc2c3c4c(cc5c3n(c2c1)C(=O)CC5)CNCC4	Cooperativity [3]: 1.19; Cooperativity [20]: 0.8
